Experimental data from patent US12016831B2, “Polidocanol for use as immunomodulating agent” (priority 2018, dated 2024).
“Also recorded” adds a separate entry of the source.

Columns and labels:
Assay type in all cases: in vivo, human
[1] = tested on: patients with autoimmune diseases (psoriasis, rheumatoid arthritis, systemic scleroderma); assay: Cytokine and CRP levels in patients with autoimmune diseases after single administration; details: for Interleukin 1 beta level: T0 = 1; for Interleukin 13 level: T0 = 4; for Interleukin 6 level: T0 = 4.6; for Interleukin 7 level: T0 = 7; for CRP level: T0 = 32; for Interleukin 12 level / Interleukin 17 (25) level: T0 = 40; for Interleukin 9 level: T0 = 50; for TNF alpha level: T0 = 60
Description: A similar approach was used in a limited group of patients with autoimmune diseases. 10 patients (5 with psoriasis, 3 with rheumatoid arthritis, 2 with systemic scleroderma) were administered once the composition of the invention and a sample of blood was taken at T1 (8 days), T2 (30 days) and T3 (60 days). Cytokine and CRP (C-Reactive Protein, an index of inflammation) levels were measured by SCREEN CRP TEST and compared to those at time 0 (before the treatment).

[2] = tested on: patients suffering from venous insufficiency from minor to severe; assay: QoL survey (CIVIQ-20) after 3 or 4 treatments with diluted polidocanol
Description: A commercially available polidocanol solution (Atossisclerol®) was diluted to 0.05% with a physiological saline solution. A 1.4% sodium bicarbonate solution was then added in order to obtain a final concentration of 0.06%. The patients, 80% of which were female between 18 and 82 years of age suffering from venous insufficiency from minor to severe, were subjected to treatment after obtaining their free and informed consent.
Before the treatment, about 100 patients were subjected to a survey in order to assess their quality of life and to evaluate possible variations of the phlogistic/inflammatory overall state, of the venous microcirculation and circulation functionality, and also, more in general, of the skin trophism.
The long term systemic effects were evaluated via a survey given to patients after 3 or 4 treatments with diluted polidocanol.
In particular, they were asked to fill out a survey (CIVIQ-20) according to the criteria defined in Launois R. et al “Construction and validation of a quality of life questionnaire in chronic lower limb venous insufficiency (CIVIQ), Qual. Life Res., 1996, 5(6):539-554.
The survey contained the questions summarized hereinbelow, with answers indexed with values from 0 to 4 (0 if the feeling of discomfort described by the question was not applicable and from 1 to 4 if it was applicable with increasing intensity). Hereinbelow are collected the activities which turned out to be improved after the treatment: • 1) During the last 4 weeks have you felt pain in the hips or legs and with what intensity? In 14% of cases a decrease in hip pain was observed after treatment with polidocanol according to the invention. • 2) During the last 4 weeks have you had troubles in the routine work activities, due to troubles with the lower limbs? In 75% cases the patients could note a better condition during routine work activity • 3) During the last 4 weeks have you had troubles sleeping due to troubles with your legs? With what frequency? 37% better sleeping conditions. No troubles. • 4) During the last 4 weeks have you had troubles in the following activities due to troubles with your legs? • a. Remaining standing for a long time. Improves in 87% • b. Climbing several flights of stairs. • c. Crouching kneeling down. Improves • d. Walking at a brisk pace. • e. Traveling by car, bus, plane. Improves in 85% • f. Performing housekeeping tasks (ironing, walking around in the kitchen, etc.). Improves in 85% • g. Going out at night. Improves in 85% • h. Playing sports • 5) Given that troubles with the legs can also affect moods, it was asked if during the last 4 weeks they had noticed troubles such as: • a. Nervousness • b. Quick fatigue • c. Feeling of oppression • d. Excessive caution • e. Embarrassment in showing off the legs. Improves in 90% • f. Irritability • g. Feeling of being handicapped • h. Morning fatigue. Improves in 95% • i. Not feeling like going out. Improves in 75%.

[3] = tested on: healthy volunteer subjects; assay: Serum immunoglobulin and light chain levels after treatment
Description: (§1) The recruited patients had already been subjected to one or more polidocanol treatments, but had undergone a wash-out period of at least 4 months.
Levels of IgM, IgG, IgA and of light chains kappa/lambda, kappa and lambda were also measured.
(§2) Determinations a)-d) were carried out with Multiple Immunomagnetic Assay (Bio-Plex, Bio-Rad). Ig determinations were carried out with commercially available kits.

[4] = tested on: healthy volunteer subjects; assay: Serum measurement of cytokines, chemokines and growth factors (Bio-Plex) after treatment
Description: as §1
Blood was then drawn at about 30′-1 hour (T1h), 1 day (T1), 7 days (T7) and 30 days (T30) after treatment, measuring the following serum parameters: • a) “Pro-inflammatory” cytokines: IL-1β, IL-6, IL-7, IL-12 (p70), IL-17, IFN-γ, TNF-α; • b) “Anti-inflammatory” cytokines: IL-1ra, IL-4, IL-5, IL-9, IL-13; • c) Chemokines: IL-8/CXCL8, IP-10/CXCL10, MIP-1α/CCL3, MIP-1β, RANTES/CCL5, Eotaxin/CCL11; • d) Growth factors: b-FGF, PDGF-bb, VEGF, G-CSF.
In a limited number of patients measurements 30 minutes and 3 hours after the treatment were carried out in order to identify short-term responses and assess possible acute inflammation indicators.
as §2
The determinations carried out were statistically analysed with the Friedman test and Dunns Multiple Comparison test. The most significant results are depicted in FIG. 1.

[5] = 7 days post treatment (T7) vs basal

Polidocanol [diluted polidocanol] was tested, and the “Interleukin 1 beta level” value ([1]; T1 (8 days) after single administration, average, 10 patients) was 1.5, the “Interleukin 13 level” value ([1]; T1 (8 days)) was 5 and the “Interleukin 6 level” value ([1]; T1 (8 days)) was 4.8. The “Interleukin 7 level” value ([1]; T1 (8 days)) was 9, the CRP level ([1]; T1 (8 days)) was 30 and the “Interleukin 12 level” value ([1]; T1 (8 days)) was 42. For the same substance, the “Interleukin 17 (25) level” value ([1]; T1 (8 days)) was 45, the “Interleukin 9 level” value ([1]; T1 (8 days)) was 80 and the TNF alpha level ([1]; T1 (8 days)) was 52. The “Interleukin 1 beta level” value ([1]; T2 (30 days)) was 1.7, the “Interleukin 13 level” value ([1]; T2 (30 days)) was 5 and the “Interleukin 6 level” value ([1]; T2 (30 days)) was 3.7. For the same substance, the “Interleukin 7 level” value ([1]; T2 (30 days)) was 3, the CRP level ([1]; T2 (30 days)) was 24 and the “Interleukin 12 level” value ([1]; T2 (30 days)) was 36. The “Interleukin 17 (25) level” value ([1]; T2 (30 days)) was 32, the “Interleukin 9 level” value ([1]; T2 (30 days)) was 100 and the TNF alpha level ([1]; T2 (30 days)) was 42. The “Interleukin 1 beta level” value ([1]; T3 (60 days)) was 1.2, the “Interleukin 13 level” value ([1]; T3 (60 days)) was 4 and the “Interleukin 6 level” value ([1]; T3 (60 days)) was 3.2. For the same substance, the “Interleukin 7 level” value ([1]; T3 (60 days)) was 3, the CRP level ([1]; T3 (60 days)) was 16 and the “Interleukin 12 level” value ([1]; T3 (60 days)) was 32. For the same substance, the “Interleukin 17 (25) level” value ([1]; T3 (60 days)) was 28, the “Interleukin 9 level” value ([1]; T3 (60 days)) was 120 and the TNF alpha level ([1]; T3 (60 days)) was 48. The “cases with decrease in hip pain” value ([2]; CIVIQ-20 question 1, after 3 or 4 treatments) was 14%, the “cases with better condition during routine work activity” value ([2]; CIVIQ-20 question 2) was 75% and the better sleeping conditions ([2]; CIVIQ-20 question 3) was 37%. The “Remaining standing for a long time, improves” value ([2]; CIVIQ-20 question 4a) was 87%, the Crouching kneeling down ([2]; CIVIQ-20 question 4c) was “Improves” and the “Traveling by car, bus, plane, improves” value ([2]; CIVIQ-20 question 4e) was 85%. For the same substance, the “Performing housekeeping tasks, improves” value ([2]; CIVIQ-20 question 4f) was 85%, the “Going out at night, improves” value ([2]; CIVIQ-20 question 4g) was 85% and the “Embarrassment in showing off the legs, improves” value ([2]; CIVIQ-20 question 5e) was 90%. For the same substance, the “Not feeling like going out, improves” value ([2]; CIVIQ-20 question 5i) was 75%, the “Morning fatigue, improves” value ([2]; CIVIQ-20 question 5h) was 95% and the “cases with improved quality of life overall” value ([2]; answers after vs before treatment) was 87%. For the same substance, the IgA level ([3]; T30 with respect to T7 and T0) was “decrease”, the IgG level ([3]; T30 with respect to T7 and T0) was “decrease” and the IgM level ([3]; T30 with respect to T7 and T0) was “decrease”. For the same substance, the light chains levels ([3]; T30 with respect to T7 and T0) was “decrease”, the “immunogenic effect (IgM and IgG levels)” value ([3]; after 7 and 30 days, at the tested concentrations) was “absence of an immunogenic effect” and the “tested Ig levels” value ([3]; between T0 and T7) was “none of the tested Ig fluctuates”. For the same substance, the IL-8 level ([4]; 7-30 days) was “increases”, the IL-1ra serum level [4, 5] was “increase significantly; also recorded: significantly increased serum levels” and the IL-1β serum level [4, 5] was “increase significantly; also recorded: significantly increased serum levels”. For the same substance, the “IL-12 (p70) serum level” value [4, 5] was “increase significantly; also recorded: significantly increased serum levels”, the MIP-1β/CCL4 serum level [4, 5] was “modest variation (increase); also recorded: significantly increased serum levels” and the VEGF serum level [4, 5] was “Increase; also recorded: significantly increased serum levels”. For the same substance, the IL-7 serum level ([4]; 30 days (T30) vs T0, p<0.01) was “decreases in a statistically significant way; also recorded: decreases significantly; also recorded: decrease”, the IL-12 serum level ([4]; 30 days (T30) vs T0, p<0.05) was “increases significantly; also recorded: increase” and the IL-1ra serum level ([4]; 30 days (T30), p<0.05) was “increase”. The IL-1β serum level ([4]; 30 days (T30), p<0.05) was “increase”, the VEGF serum level ([4]; 30 days (T30), p<0.05) was “higher levels; also recorded: increase” and the “serum parameters, not-treated (T0) vs 1 day after treatment (T1)” value ([4]; T1, acute inflammatory reaction) was “None of the analysed parameters showed statistically significant differences”. For the same substance, the PDGFbb level ([4]; after treatment) was “increasing”, the b-FGF level ([4]; after treatment) was “increasing” and the “most of the serum parameters (except for IP-10/CXCL10) compared with T0” value ([4]; first hour after treatment (T30-45 min)) was “increased”. The “IL-2, IL-10, IL-15, GM-CSF and MCP-1/CCL2 serum levels” value ([4]; in vivo) was “below the detection limits” and the MIP-1α level ([4]; with respect to basal levels, within the 1st and 7th days) was “modest variation (increase)”.
